From PMC8003391, “QSAR-Based Virtual Screening of Natural Products Database for Identification of Potent Antimalarial Hits” (Biomolecules, 2021)
Where two headings read alike, the source gives them in different places.

Key:
P. falciparum W2 [1] = system: P. falciparum W2; parameters: method as in PMID 25461309; conditions: read-out: EC50 against multi-resistant strain; cited from earlier work
P. falciparum 3D7 = experiment: In vitro P. falciparum growth inhibition assay (SybrGreen), chloroquine-sensitive 3D7 strain; type: cell-based, Plasmodium falciparum; conditions: for inhibition at 5 µM: 3D7, read-out: inhibition of parasite growth
Experimental: (§1) Chloroquine-sensitive (3D7) and multi-drug-resistant (W2) P. falciparum strains were cultured following the candle jar method as described by Trager and Jensen. Briefly, parasites were maintained in RPMI 1640 medium supplemented with 10% A+ human plasma at 5% CO2 atmosphere. Ring stage synchronized cultures were obtained by two consecutive treatments with a 5% D-sorbitol solution [32] in 48 h intervals.
(§2) Parasite growth inhibition assays were conducted by distributing ring stage synchronized parasites at 2% hematocrit and 0.5% parasitemia in 96-well plates (NEST Biotechnology Co., Ltd., Wuxi, Jiangsu, China). Parasites were incubated in the presence of drugs in a two-fold 12-point serial dilution starting at 10 µM in duplicate. Chloroquine was used as an antimalarial standard. At the end of a 72 h incubation, parasitemia was determined by fluorescence reading at 490 nm excitation and 540 nm emission (BMG CLARIOstar, BMG Labtech Inc., Durham, NC, USA) using SybrGreen fluorescent dye as described by Hartwig et al.. Parasite growth inhibition was determined as a percentage relative to drug-free control. EC50 values were interpolated from log doses vs. inhibition curves in GraphPad Prism 6 (GraphPad, La Jolla, CA, USA).

P. falciparum W2 [2] = experiment: In vitro P. falciparum growth inhibition assay (SybrGreen), multi-drug-resistant W2 strain; type: cell-based, Plasmodium falciparum; conditions: for activity more potent than artesunate: W2, compared with artesunate EC50 = 5.7 nM
Experimental: as §1, §2

[3] = Cytotoxicity, MTT reduction assay; type: cell-based; conditions: human
Experimental: Cytotoxicity of selected compounds was evaluated using the MTT reduction assay (3-[4,5-dimethyl-thiazol-2-yl]-2,5-diphenyltetrazolium chloride). Human hepatoma (HepG2) cells were cultured in Dulbecco’s Modified Eagle Medium supplemented with gentamycin (40 mg/L) and 10% heat-inactivated fetal bovine serum at 37 °C and 5% CO2. Cells were seeded in 96-well plates (NEST Biotechnology Co., Ltd., Wuxi, Jiangsu, China) at 10^5 cells per well and incubated in the presence of a serial dilution of the drugs starting at 100 µM. After 72 h of incubation, MTT was added to the wells. The optical density was measured at 570 nm (CLARIOStar, Labtech BMG Inc, Durham, NC, USA) and cell viability was expressed as a percentage relative to the untreated control. CC50 values were calculated by plotting a log dose vs. viability curve in GraphPad Prism 6 (GraphPad, La Jolla, CA, USA). The selectivity index (SI) of the compounds was determined by the expression:SI = (HepG2 CC50)/(Pf EC50), where HepG2 CC50 corresponds to the cytotoxic concentration of compounds in HepG2 cells and Pf EC50 relates to the 50% inhibitory concentration on P. falciparum 3D7 strain.

[4] = Plasmodium falciparum, 3D7, 72 h, chloroquine-sensitive 3D7 strain, 72 h, SybrGreen, ± standard deviation, read-out: EC50 Pf3D7
[5] = Plasmodium falciparum, W2, 72 h, multi-drug-resistant W2 strain, 72 h, SybrGreen, ± standard deviation, read-out: EC50 PfW2
[6] = HepG2 cells, 72 h, MTT, read-out: CC50 HepG2
[7] = chloroquine-sensitive 3D7 strain, 72 h, SybrGreen, ± standard deviation, read-out: EC50 Pf3D7
[8] = multi-drug-resistant W2 strain, 72 h, SybrGreen, ± standard deviation, read-out: EC50 PfW2
[9] = Plasmodium falciparum, W2, W2, text value, read-out: EC50 against P. falciparum W2
[10] = Plasmodium falciparum, 3D7, 3D7, text value, read-out: EC50 against P. falciparum 3D7

Structure (SMILES) | EC50 (P. falciparum 3D7; [4]) [µM] | EC50 (P. falciparum W2 [2]; [5]) [µM] | inhibition at 5 µM (P. falciparum 3D7; Plasmodium falciparum, 72 h) [%] | CC50 at 72 h [3, 6] [µM] | EC50 (P. falciparum 3D7; [7]) [µM] | also measured
C[C@H]1[C@H](OC(=O)CCC(=O)O)O[C@@H]2O[C@@]3(C)CC[C@H]4[C@H](C)CC[C@@H]1[C@@]24OO3 [Artesunate, reference compound] | 0.0016 |  |  |  |  | EC50 (P. falciparum W2 [1]): 0.0057 µM
Cn1c(=O)[nH]c2nnc(-c3ccc(Cl)cc3)nc2c1=O [LDT-592] | 9.09 ± 3.74 | 3.11 ± 0.54 | > 70 | 17 |  | 
CCOC(=O)c1ccc2[nH]cc(C(=O)OCC)c(=O)c2c1 [LDT-588] | < 5 |  | > 70 | 67 ± 2.28 | 3.84 ± 1.45 | 
COc1ccc(C2CC(=O)NC3=C2C(=O)C2(Oc4c(Cl)c(OC)cc(OC)c4C2=O)C(C)C3)cc1O (stereo not drawn) [LDT-614] | 5.26 ± 0.52 | 5.65 ± 3.11 | > 70 | 23.6 ± 1.82 |  | 
COc1cc(C2NCCc3cc(OC)c(OC)cc32)ccc1O (stereo not drawn) [LDT-601] | 6.61 ± 3.2 | 0.65 ± 0.47 | > 70 | 21.8 ± 4.16 |  | 
COc1ccccc1CNC(=O)C1CN2CCC1CC2Cn1cc(-c2cccc(N)c2)nn1 (stereo not drawn) [LDT-586] | < 5 | < 5 | > 70 |  | 4.52 ± 0.91 | EC50 (P. falciparum W2 [2]; [8]): 3.44 ± 1.3 µM; CC50 at 72 h [3]: 98.6 µM
COC(CNC(=O)CCC(=O)OC1OC2OC3(C)CCC4C(C)CCC(C1C)C24OO3)OC (stereo not drawn) [LDT-597] |  |  | > 70 | 18.3 ± 3.51 |  | EC50 (P. falciparum W2 [2]; [9]): 0.00056 µM; activity more potent than artesunate (P. falciparum W2 [2]): about 10 fold; EC50 (P. falciparum 3D7; [10]): 0.00054 µM
CC(NC(=O)CCCNC(=O)CCC(=O)OC1OC2OC3(C)CCC4C(C)CCC(C1C)C24OO3)C(=O)O (stereo not drawn) [LDT-598] |  |  | > 70 | 25.9 ± 1.13 |  | EC50 (P. falciparum W2 [2]; [9]): 0.00059 µM; activity more potent than artesunate (P. falciparum W2 [2]): about 10 fold; EC50 (P. falciparum 3D7; [10]): 0.00078 µM
CCN(CC)CCCC(C)Nc1ccnc2cc(Cl)ccc12 (stereo not drawn) [Chloroquine, reference compound] |  |  |  |  |  | EC50 (P. falciparum W2 [2]; Plasmodium falciparum, W2, 72 h, read-out: EC50 PfW2): 0.147 ± 0.04 µM; EC50 (P. falciparum 3D7; Plasmodium falciparum, 3D7, 72 h, read-out: EC50 Pf3D7): 0.0079 µM
COc1ccc(C2c3[nH]c4ccccc4c3C[C@H]3C(=O)N(C4CC4)CC(=O)N23)cc1OC (stereo partly drawn) [LDT-599] | < 5 | < 5 | > 70 | 21 ± 2.51 | 3.68 ± 1.92 | EC50 (P. falciparum W2 [2]; [8]): 2.74 ± 0.78 µM
